Results on 8 molecules are retold here after patent US20250333419A1, “BICYCLIC COMPOUNDS AS INHIBITORS OF WRN” (Incyte Corporation, priority 2023, published 2025).

Assay [1] deals with T1, WRN (Homo sapiens, UniProt Q14191).
T1 construct: A His-tagged construct of WRN (AA S2-S1235) was produced and used for the ATPase assay; His; made in house; host or cells: Sf9 insect cells (baculovirus)
The experiment in a line: WRN Helicase activity assay (fluorescence DNA unwinding). The class given is biochemical. The conditions noted are these: IC50, 1-hr pre-incubation with enzyme; geometric means of at least 2 independent replicates. The procedure:
Compounds of the examples were tested for WRN helicase activity. DNA encoding the target protein, 6×HIS-TEV-WRN-517-945, was produced, cloned and transfected as detailed in Example D. To determine the inhibitory properties of the compounds, a 384 wells plate-based Helicase assay was set up to measure the extent of DNA unwinding (Helicase) activity of WRN. The WRN Helicase assay was designed to measure increase in fluorescence signal using a fluorescence based, donor-quencher paired forked dsDNA oligomer substrate (custom synthesis from Sigma-Aldrich) prepared by annealing equal amounts of oligo GPat-1 ([BHQ2][…]) and oligo GPat-2 ([…][TAM]). Continuous measurement of fluorescent signal was used to optimize the buffer conditions, concentration of enzyme (WRN), concentration of substrates (ATP & dsDNA), and the linearity of the Helicase reaction. All solutions were prepared in the following assay buffer: 50 mM Tris-HCl, pH-7.5, 2 mM MgCl2, 50 mM NaCl, 1 mM EGTA, 0.01% P-20, 0.05% BSA, and 2 mM DTT prepared with nuclease free water.
A serial dilution (1:3 scheme) of the compounds was prepared in neat DMSO and 100 nL of the compounds was dispensed in the Greiner black low volume (Greiner #784076) 384 wells assay plate. An 1-hr pre-incubation of the compounds with enzyme was included. A His-tagged construct of WRN (AA S2-S1235) was produced and used for the ATPase assay. Maximum inhibition control wells were set up with the addition of only assay buffer, and no inhibition control wells were set up with neat DMSO without test compounds. The reaction was initiated by addition of 5 μL substrate mix (200 μM ultrapure ATP, and 50 nM dsDNA prepared in assay buffer) and incubated at 25° C. for 35 min. A typical Helicase reaction consists of 25 nM forked dsDNA, 100 μM ATP, and 1 nM WRN prepared in assay buffer. The WRN Helicase reaction was quenched by the addition of 5 μL ‘STOP’ solution containing 100 mM EDTA (final EDTA concentration 33.33 mM) prepared in assay buffer. The plates were read on BMG PHERAstar FSX using 540/590 module to measure an increase of fluorescence. Data analysis was carried out using the Genedata software following % of control normalization. Fitting parameters include dose response IC50, Hill slope (n), maximum inhibition (S∞), and minimum inhibition (S0). The reported IC50 values for compounds in this invention are the geometric means of at least 2 independent replicates.

In assay [2] the target is T1, WRN. In words: WRN ATPase activity assay (ADP-Glo). The conditions noted are these: IC50, 1-hr pre-incubation with enzyme; geometric means of at least 2 independent replicates. It counts as biochemical. How it is done:
Compounds of the Examples were tested for WRN ATPase activity. WRN ATPase activity catalyzes ATP hydrolysis to produce ADP and phosphate. DNA encoding the target protein, 6×HIS-TEV-WRN-517-945, was produced, cloned and transfected as detailed in Example D. The amount of ADP produced was measured using ADP-Glo™ Kinase Assay kit from Promega Corporation in a Greiner white regular volume 384 wells assay plate (Greiner #781075). Data was normalized to a standard curve generated using various ADP concentrations and the corresponding luminescent signal intensities at each concentration. The assay conditions were optimized for enzyme concentration (WRN), substrate concentrations (ATP & dsDNA), and the linearity of the ATPase reaction, in the following assay buffer: 50 mM Tris-HCl, pH-7.5, 2 mM MgCl2, 50 mM NaCl, 1 mM EGTA, 0.01% P-20, 0.05% BSA, and 2 mM DTT prepared with nuclease free water.
A serial dilution (1:3 scheme) of the compounds were prepared in neat DMSO, with 100 nL of the compounds dispensed in the 384 wells assay plate. An 1-hr pre-incubation of the compounds with enzyme was included. A His-tagged construct of WRN (AA S2-S1235) was produced and used for the ATPase assay. Maximum inhibition control wells were set up with the addition of only assay buffer, and no inhibition control wells were set up with neat DMSO without test compounds. The reaction was initiated by addition of 5 μL substrate mix (200 μM ultrapure ATP, and 50 nM dsDNA prepared in assay buffer) and incubated at 25° C. for 35 min. A forked dsDNA oligomer substrate was prepared by annealing equal amounts of oligo GPat-1 ([BHQ2][…]) and oligo GPat-2 ([…][TAM]) and was used as dsDNA substrate for WRN ATPase assay. A typical ATPase reaction consists of 25 nM forked dsDNA, 100 μM ATP, and 1 nM WRN prepared in assay buffer. The WRN ATPase reaction was stopped by the addition of 5 μL of ADP-Glo Reagent from ADP-Glo™ Kinase Assay kit and incubated for 40 min to deplete the unreacted ATP. Afterwards, 5 μL of Kinase Detection Reagent from the ADP-Glo™ Kinase Assay kit was added and incubated for 1 hr for the development of luminescence signal.
Luminesce signals were measured on BMG PHERAstar FSX using luminescence protocol. Data analysis was carried out using Genedata software following % of control normalization. Fitting parameters include dose response IC50, Hill slope (n), maximum inhibition (S∞), and minimum inhibition (S0). The reported IC50 values for compounds in this invention are the geometric means of at least 2 independent replicates.

pIC50: −log10 of the molar value.

T1 sequence (Q14191 2-1235): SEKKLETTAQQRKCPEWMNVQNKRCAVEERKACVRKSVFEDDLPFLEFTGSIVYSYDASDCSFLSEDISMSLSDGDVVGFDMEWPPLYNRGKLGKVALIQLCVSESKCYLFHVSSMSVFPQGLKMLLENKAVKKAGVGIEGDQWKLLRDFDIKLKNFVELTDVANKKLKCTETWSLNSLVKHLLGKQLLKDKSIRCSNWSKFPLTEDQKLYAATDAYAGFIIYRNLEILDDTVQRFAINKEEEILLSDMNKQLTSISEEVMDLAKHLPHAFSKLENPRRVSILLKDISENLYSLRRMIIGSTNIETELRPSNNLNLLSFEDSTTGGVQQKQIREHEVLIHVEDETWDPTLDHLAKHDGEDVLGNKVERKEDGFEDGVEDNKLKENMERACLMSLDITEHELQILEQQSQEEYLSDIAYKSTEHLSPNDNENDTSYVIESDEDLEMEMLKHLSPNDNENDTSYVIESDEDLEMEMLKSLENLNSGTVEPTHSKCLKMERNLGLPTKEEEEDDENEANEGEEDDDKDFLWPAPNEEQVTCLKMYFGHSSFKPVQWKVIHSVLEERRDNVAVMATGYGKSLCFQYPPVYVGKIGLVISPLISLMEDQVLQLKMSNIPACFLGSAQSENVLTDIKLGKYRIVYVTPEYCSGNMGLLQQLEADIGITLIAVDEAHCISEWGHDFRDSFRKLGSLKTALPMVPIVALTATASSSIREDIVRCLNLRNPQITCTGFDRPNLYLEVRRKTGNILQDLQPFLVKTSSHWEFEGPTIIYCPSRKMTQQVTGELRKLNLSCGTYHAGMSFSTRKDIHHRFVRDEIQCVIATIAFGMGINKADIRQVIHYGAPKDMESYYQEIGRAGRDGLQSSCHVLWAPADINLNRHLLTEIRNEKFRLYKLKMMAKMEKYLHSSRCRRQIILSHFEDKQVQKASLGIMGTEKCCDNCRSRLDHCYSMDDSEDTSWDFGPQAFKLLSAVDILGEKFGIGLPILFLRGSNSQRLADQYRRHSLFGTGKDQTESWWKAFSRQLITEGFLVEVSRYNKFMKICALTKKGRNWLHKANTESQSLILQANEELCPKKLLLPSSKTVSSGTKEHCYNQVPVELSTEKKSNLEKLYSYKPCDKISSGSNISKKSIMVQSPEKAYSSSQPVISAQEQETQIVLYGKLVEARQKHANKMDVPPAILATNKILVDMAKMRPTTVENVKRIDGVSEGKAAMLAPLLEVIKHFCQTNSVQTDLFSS

Usually pIC50 stands for −log10 of the IC50, conventionally taken in molar units. High values mean a small IC50, low ones a large IC50. Turning to `C=CC(=O)Nc1ccc(C)cc1-c1c(CC)n(CC(=O)Nc2ccc(C(F)(F)F)cc2)c2nc(C3=CCOCC3)nn2c1=O` [Example 9, N-(2-(2-(3,6-Dihydro-2H-pyran-4-yl)-5-ethyl-7-oxo-4-(2-oxo-2-((4-(trifluoromethyl)phenyl)amino)ethyl)-4,7-dihydro-[1,2,4]triazolo[1,5-a]pyrimidin-6-yl)-4-methylphenyl)acryl amide], the pIC50 against WRN [1] and on WRN [2] was 6.00 to 6.30 throughout.

As to `CCOC(=O)/C=C/C(=O)Nc1ccccc1-c1c(CC)n(CC(=O)Nc2ccc(C(F)(F)F)cc2)c2nc(C3=CCOCC3)nn2c1=O` [Example 3, Ethyl (E)-4-((2-(2-(3,6-dihydro-2H-pyran-4-yl)-5-ethyl-7-oxo-4-(2-oxo-2-((4-(trifluoromethyl)phenyl)amino)ethyl)-4,7-dihydro-[1,2,4]triazolo[1,5-a]pyrimidin-6-yl)phenyl)amino)-4-oxobut-2-enoate], the negative-log IC50 (pIC50) at WRN [1] is 5.70 to 6.00; at WRN [2] it was 6.00 to 6.30.

`C=CC(=O)N1CCc2cccc(-c3c(CC)n(CC(=O)Nc4ccc(C(F)(F)F)cc4)c4nc(C5=CCOCC5)nn4c3=O)c21` [Example 15, 2-(6-(1-Acryloylindolin-7-yl)-2-(3,6-dihydro-2H-pyran-4-yl)-5-ethyl-7-oxo-[1,2,4]triazolo[1,5-a]pyrimidin-4(7H)-yl)-N-(4-(trifluoromethyl)phenyl)acetamide]: the negative logarithm of the IC50 (pIC50) on WRN [1] and on WRN [2] was > 7.00 throughout.

Consider `C=CC(=O)Nc1ccccc1-c1c(CC)n(CC(=O)Nc2ccc(C(F)(F)F)cc2)c2nc(C)nn2c1=O` [Example 18, N-(2-(5-Ethyl-2-methyl-7-oxo-4-(2-oxo-2-((4-(trifluoromethyl)phenyl)amino)ethyl)-4,7-dihydro-[1,2,4]triazolo[1,5-a]pyrimidin-6-yl)phenyl)acrylamide], for which the pIC50 at WRN [1] and against WRN [2] was 6.00 to 6.30 in each case.

With `C=CC(=O)Nc1ccccc1-c1c(CC)n(CC(=O)Nc2ccc(C(F)(F)F)cc2)c2nc(C3CCC3)nn2c1=O` [Example 19, N-(2-(2-Cyclobutyl-5-ethyl-7-oxo-4-(2-oxo-2-((4-(trifluoromethyl)phenyl)amino)ethyl)-4,7-dihydro-[1,2,4]triazolo[1,5-a]pyrimidin-6-yl)phenyl)acrylamide], the pIC50 against WRN [1] and at WRN [2] was 6.30 to 7.00 in each case.

In the case of `C=CC(=O)Nc1ccccc1-c1c(CC)n(CC(=O)Nc2ccc(C(F)(F)F)cc2)c2nc(C3CCNCC3)nn2c1=O` [Example 24, N-(2-(5-Ethyl-7-oxo-4-(2-oxo-2-((4-(trifluoromethyl)phenyl)amino)ethyl)-2-(piperidin-4-yl)-4,7-dihydro-[1,2,4]triazolo[1,5-a]pyrimidin-6-yl)phenyl)acrylamide], the pIC50 at WRN [1] and against WRN [2] was 6.30 to 7.00 throughout.

Consider `CCc1c(-c2ccccc2NC(=O)/C(C#N)=C\C(C)C)c(=O)n2nc(C3=CCOCC3)nc2n1CC(=O)Nc1ccc(C(F)(F)F)cc1` (single isomer, unassigned) [Example 4, (Z)-2-Cyano-N-(2-(2-(3,6-dihydro-2H-pyran-4-yl)-5-ethyl-7-oxo-4-(2-oxo-2-((4-(trifluoromethyl)phenyl)amino)ethyl)-4,7-dihydro-[1,2,4]triazolo[1,5-a]pyrimidin-6-yl)phenyl)-4-methylpent-2-enamide], for which the negative-log IC50 (pIC50) against WRN [1] and against WRN [2] was 6.00 to 6.30 in each case.

Take `C=CC(=O)Nc1ccccc1-c1c(CC)n(CC(=O)Nc2ccc(C(F)(F)F)cc2)c2nc(-c3cccs3)nn2c1=O` [Example 22, N-(2-(5-Ethyl-7-oxo-4-(2-oxo-2-((4-(trifluoromethyl)phenyl)amino)ethyl)-2-(thiophen-2-yl)-4,7-dihydro-[1,2,4]triazolo[1,5-a]pyrimidin-6-yl)phenyl)acrylamide]: the pIC50 at WRN [1] and on WRN [2] was > 7.00 in each case.
